Experimental findings from patent US6521635B1, “Inhibition of MXR transport by acridine derivatives” (priority 2000, dated 2003) are described below.

Series [1] deals with S1-M1-80 cells expressing MXR. Briefly: In vitro cytotoxicity assay (sulforhodamine B staining). The class given is cell-based, human. The settings on record: for IC50: Homo sapiens, S1-M1-80, 96 h; for RR (relative resistance): S1-M1-80 cells relative to S1 parental; for DMF +0.5 μM GF120918: IC50 without / IC50 with 0.5 μM GF120918; for DMF +1.0 μM GF120918: IC50 without / IC50 with 1.0 μM GF120918. As to the method: (§1) Reversal of resistance was determined in cytotoxicity assays using the sulforhodamine staining (Skehan et al. (1990) J. Natl. […] Briefly, cells were harvested and seeded at a density of 2000 cells/well for the colon cancer lines and 4000 cells/well for the breast cancer cell lines in flat-bottom 96-well plates. The cells were incubated for 24 h at 37° C. to allow attachment prior to addition of the drugs. […] Each concentration was tested in triplicate and the controls were done in replicates of eight. Results are representative of from three to six experiments. […] After incubation, the cells were fixed in TCA and stained with sulforhodamine B (SRB) solution (0.4% wt/vol in 1% acetic acid) (Sigma Chemical, St Louis, Mo.). Optical densities were read on a Bio-Rad plate reader (Hercules, Calif.) at an absorbance of 540 nm.

A further series deals with S1 parental cells. The series is described as above. The settings on record: for IC50: Homo sapiens; for DMF +0.5 μM GF120918 / DMF +1.0 μM GF120918: S1 cells; for DMF +0.5 μM GF120918: IC50 without / IC50 with 0.5 μM GF120918; for DMF +1.0 μM GF120918: IC50 without / IC50 with 1.0 μM GF120918. In kind it is cell-based, human. As for the experimental part:
as §1

The next series concerns MCF-7 parental cells. Described as above. In kind it is cell-based, human. The settings on record: for IC50: Homo sapiens, MCF7, 96 h. As for the experimental part: as §1
Series [2] relates to S1-B1-20 Pgp-overexpressing cells. Described as above. The class given is cell-based, human. The settings on record: for IC50: Homo sapiens, S1B1-20, 96 h; for RR (relative resistance): S1-B1-20 cells relative to S1 parental; for DMF +0.5 μM GF120918 / DMF +1.0 μM GF120918 / relative resistance: S1-B1-20 cells; for DMF +0.5 μM GF120918: IC50 without / IC50 with 0.5 μM GF120918; for DMF +1.0 μM GF120918: IC50 without / IC50 with 1.0 μM GF120918. As for the experimental part: as §1

The next series has as its target T1, MXR (S1-M1-80 cells) (Homo sapiens, UniProt Q9UNQ0, R482G).
T1 construct: express high levels of a mitoxantrone transporter (Miyake et al. (1999) Cancer Res.59: 8-13); endogenous in cells; host or cells: S1-M1-80 (mitoxantrone-selected subline of S1 colon carcinoma cells)
T1 sequence (Q9UNQ0 1-655 R482G): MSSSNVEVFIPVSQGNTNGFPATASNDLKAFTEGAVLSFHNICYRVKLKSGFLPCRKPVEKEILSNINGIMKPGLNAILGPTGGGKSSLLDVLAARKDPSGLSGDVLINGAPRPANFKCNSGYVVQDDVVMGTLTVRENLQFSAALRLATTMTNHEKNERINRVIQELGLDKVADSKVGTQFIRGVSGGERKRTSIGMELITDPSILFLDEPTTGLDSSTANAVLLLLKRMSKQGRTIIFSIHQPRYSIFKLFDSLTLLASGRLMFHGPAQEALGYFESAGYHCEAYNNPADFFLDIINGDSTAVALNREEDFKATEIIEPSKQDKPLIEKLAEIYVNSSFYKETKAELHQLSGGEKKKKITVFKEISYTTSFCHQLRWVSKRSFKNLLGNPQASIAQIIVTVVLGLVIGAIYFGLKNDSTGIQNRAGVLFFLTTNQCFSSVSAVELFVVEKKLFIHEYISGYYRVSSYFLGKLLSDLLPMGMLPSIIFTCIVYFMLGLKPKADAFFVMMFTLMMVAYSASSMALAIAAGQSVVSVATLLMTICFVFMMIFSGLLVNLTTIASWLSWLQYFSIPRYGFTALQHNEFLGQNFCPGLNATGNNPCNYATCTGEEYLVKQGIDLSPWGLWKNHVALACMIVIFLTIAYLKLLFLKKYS
Briefly: Rhodamine efflux assay (flow cytometry). The class given is cell-based. As for the experimental part:
To provide confirmation, rhodamine efflux assays were performed. […] The results are depicted in FIG. 2.

For series [3], the system named is S1 parental cells (low endogenous level of Pgp). Briefly: Rhodamine efflux assay (flow cytometry). In kind it is cell-based, human. As to the method:
The rhodamine and calcein efflux assays were performed as previously described with minor modifications (Lee et al. (1994) Mol. Pharmacol. 46: 627-638; Versantvoort et al. (1995) Int. J. Cancer 63: 855-862.) Suspensions of logarithmic phase cells were obtained from tissue culture flasks by trypsinization and transferred into round-bottom 96-well plates. […] After the efflux period, the cells were washed with DPBS and placed on ice. A FACSort flow cytometer (Becton Dickinson, San Jose, Calif.) with a 488-nm argon laser was used to analyze the samples. Rhodamine 123 or calcein fluorescence was collected after a 530 nm bandpass filter. A minimum of 10,000 events was collected per sample and the samples were gated on forward scatter versus side scatter to exclude clumps and debris; dead cells were excluded based on propidium iodide staining.
To provide confirmation, rhodamine efflux assays were performed. […] After an accumulation and efflux period, rhodamine fluorescence was quantitated by flow cytometric analysis. The results are depicted in FIG. 2. […] PSC 833, a cyclosporin-D analog, was used as a positive control for Pgp antagonism.

The mark [4] stands for this setting: S1-M1-80 cells, chemotherapy drug without GF120918, 96 h, read-out: IC50.
Where [5] appears, read: read-out: IC50 +0.5 μM GF120918, S1-M1-80 cells, with 0.5 μM GF120918, 96 h.
Where [6] appears, read: 96 h, read-out: IC50 +0.5 μM GF120918.
[7] abbreviates: 96 h, read-out: IC50 +1.0 μM GF120918.
[8] abbreviates: read-out: IC50 +0.5 μM GF120918.
[9] abbreviates: read-out: IC50 +1.0 μM GF120918.

Like-named read-outs stand apart in the source and are kept apart here.

In the case of `O=C1c2c(O)ccc(O)c2C(=O)c2c(NCCNCCO)ccc(NCCNCCO)c21` [Mitoxantrone], the IC50 in series [1] (setting [4]) is 222 ± 101 µM; in series [1] (setting [5]), 1.57 ± 0.95 µM; in series [1] (read-out: IC50 +1.0 μM GF120918, S1-M1-80 cells, with 1.0 μM GF120918, 96 h), 0.12 ± 0.11 µM; in the series on S1 parental cells (setting [6]), 0.0053 ± 0.0043 µM; with S1 parental cells (setting [7]) it was 0.0052 ± 0.0044 µM; with S1 parental cells (96 h, read-out: IC50), 0.0062 ± 0.0047 µM. The IC50 in the series with MCF-7 parental cells (setting [8]) worked out at 0.0057 ± 0.0073 µM; in the series on MCF-7 parental cells (setting [9]) it was 0.0056 ± 0.0081 µM; in the series on MCF-7 parental cells (read-out: IC50), 0.025 ± 0.019 µM; in series [2] (setting [8]), 0.015 ± 0.0056 µM; in series [2] (setting [9]), 0.013 ± 0.0066 µM; in series [2] (read-out: IC50), 0.41 ± 0.61 µM. Moreover, the entries for the “RR (relative resistance)” value in series [1] and in series [2] were 35806 and 66, respectively. Further, the “DMF +0.5 μM GF120918” value was found to be 141 in series [1] (S1-M1-80 cells), 1.2 with S1 parental cells and 27 in series [2]. Further, the “DMF +1.0 μM GF120918” value in series [1] (S1-M1-80 cells) stood at 1850; in the series with S1 parental cells it was 1.2; in the series with MCF-7 parental cells (MCF-7 cells, IC50 without / IC50 with 1.0 μM GF120918), 4.4; in series [2], 31. For the same compound, in the series with MCF-7 parental cells (MCF-7 cells, IC50 without / IC50 with 0.5 μM GF120918), the “DMF (Dose Modifying Factor) +0.5 μM GF120918” value is on record as 4.4.
In the case of `C/C=C/C[C@@H](C)C(=O)[C@H]1C(=O)N[C@@H](C(C)C)C(=O)N(C)CC(=O)N(C)[C@@H](CC(C)C)C(=O)N[C@@H](C(C)C)C(=O)N(C)[C@@H](CC(C)C)C(=O)N[C@@H](C)C(=O)N[C@H](C)C(=O)N(C)[C@@H](CC(C)C)C(=O)N(C)[C@@H](CC(C)C)C(=O)N(C)[C@@H](C(C)C)C(=O)N1C` [PSC 833], the “antagonism of MXR” value on MXR (S1-M1-80 cells) is on record as “not an effective antagonist for MXR”. The “effect on rhodamine accumulation and efflux” value in series [3] is “small increase in rhodamine accumulation and a decrease in efflux”.
Consider `CC(=O)O[C@H]1C(=O)[C@@]2(C)[C@H]([C@H](OC(=O)c3ccccc3)[C@]3(O)C[C@H](OC(=O)[C@H](O)[C@@H](NC(=O)c4ccccc4)c4ccccc4)C(C)=C1C3(C)C)[C@]1(OC(C)=O)CO[C@@H]1C[C@@H]2O` [paclitaxel], for which the relative resistance in series [1] (S1-M1-80 cells) was determined as 1.5 fold; in series [2], 200 fold.
For `CC[C@@]1(O)C(=O)OCc2c1cc1n(c2=O)Cc2cc3c(CN(C)C)c(O)ccc3nc2-1` [topotecan], the IC50 in series [1] (setting [4]) stood at 12 ± 5 µM; in series [1] (setting [5]) it was 2 µM; in the series with S1 parental cells (setting [6]), 0.034 µM; in the series on S1 parental cells (setting [7]), 0.025 ± 0.007 µM; in the series on S1 parental cells (96 h, read-out: IC50), 0.036 ± 0.0085 µM; in the series on S1 parental cells (read-out: IC50), 0.036 µM. The IC50 in series [2] (setting [8]) is 0.04 µM; in series [2] (setting [9]) it was 0.027 ± 0.005 µM; in series [2] (read-out: IC50) it was 0.16 ± 0.05 µM. In addition, the relative resistance is 334 fold in series [1] (S1-M1-80 cells) and 4.4 fold in series [2]. Moreover, the “RR (relative resistance)” value turned out to be 334 in series [1] and 4.4 in series [2]. Moreover, the “DMF +0.5 μM GF120918” value in series [1] (S1-M1-80 cells) is 6; with S1 parental cells, 1.0; in series [2], 4. Besides, the “DMF +1.0 μM GF120918” value came to 23 in series [1] (S1-M1-80 cells), 1.4 with S1 parental cells and 5.9 in series [2].
